Measurements taken from patent US20100016366A1, “Novel Compounds Active as Muscarinic Receptor Antagonists” (priority 2008, published 2010).

Assays:
[1] = molecular target: T1, human muscarinic M3 receptor (Homo sapiens, UniProt P20309); assay: Cell based potency assessment, hM3 β-lactamase assay (CHO cell β-lactamase); details: CHO cells recombinantly expressing human M3, NFAT-β-lactamase reporter; inhibition of 80 nM carbamyl choline signal, 4 h; IC50 converted by Cheng-Prusoff
T1 construct: expressed in transfected cells; host or cells: CHO (CHO-K1) cells
Protocol: Cell BASED POTENCY ASSESSMENT at the Human Recombinant M3 Muscarinic Receptor
M3 potency was determined in CHO-K1 cells transfected with the NFAT-Betalactamase gene. CHO (Chinese Hamster Ovary) cells recombinantly expressing the human muscarinic M3 receptor were transfected with the NFAT_β-Lac_Zeo plasmid. Cells were grown in DMEM with Glutamax-1, supplemented with 25 mM HEPES (Life Technologies 32430-027), containing 10% FCS (Foetal Calf Serum; Sigma F-7524), […] Sodium pyruvate (Sigma S-8636), NEAA (non-Essential Amino Acids; Invitrogen 11140-035) and 200 μg/ml Zeocin (Invitrogen R250-01).
hM3 β-Lactamase Assay Protocol
Cells were harvested for assay when they reached 80-90% confluency using enzyme free cell Dissociation Solution (Life technologies 13151-014) incubated with the cells for 5 min at 37° C. in an atmosphere containing 5% CO2. Detached cells were collected in warmed growth media and centrifuged at 2000 rpm for 10 min, washed in PBS (Phosphate Buffered Saline; Life Technologies 14190-094) and centrifuged again as just described. The cells were re-suspended at 2×10^5 cells/ml in growth medium (composition as described above). 20 μl of this cell suspension was added to each well of a 384 well black clear bottomed plate (Greiner Bio One 781091-PFI). The assay buffer used was PBS supplemented with 0.05% Pluronic F-127 (Sigma 9003-11-6) and 2.5% DMSO. Muscarinic M3 receptor signalling was stimulated using 80 nM carbamyl choline (Aldrich N240-9) incubated with the cells for 4 h at 37° C./5% CO2 and monitored at the end of the incubation period using a Tecan SpectraFluor+plate reader (λ−excitation 405 nm, emission 450 nm and 503 nm). M3 receptor antagonists under test were added to the assay at the beginning of the 4 h incubation period and compound activity measured as the concentration dependent inhibition of the carbamyl choline induced signal. Inhibition curves were plotted and IC50 values generated using a 4-parameter sigmoid fit and converted to Ki values using the Cheng-Prusoff correction and the KD value for carbamyl choline in the assay.

[2] = molecular target: T1, human muscarinic M3 receptor; assay: hM3 competition binding assay (3H-NMS, CHO cell membranes); details: CHO cell membranes expressing human M3; 3H-NMS at 5×KD, 24 hr at RT; IC50 corrected by Cheng-Prussoff
Protocol: Binding Affinity Assessment at the Human Recombinant M3 Muscarinic Receptor
Cell Pellets from CHO (Chinese Hamster Ovary) cells recombinantly expressing the human muscarinic M3 receptor were homogenised in 20 mM HEPES (pH7.4) and centrifuged at 48000×g for 20 min at 4° C. The pellet was re-suspended in buffer and the homogenisation and centrifugation steps repeated. The resulting pellet was re-suspended in 1 ml buffer per 1 ml original packed cell volume and the homogenisation step repeated. Protein estimation was carried out on the suspension and 1 ml aliquots of ˜1 mg/ml frozen at −80° C.
hM3 Competition Binding Assay Protocol
Membranes (5 µg/well) were incubated with ^3H-NMS (at a concentration 5×KD) plus/minus test compound for 24 hr at RT (room temperature) in a 1 ml polystyrene 96-well deep well block. The final assay volume was 200 µl, comprising of: 20 µl plus/minus test compound; 20 µl ^3H-NMS (Perkin Elmer NEN 636) and 160 µl membrane solution. Total Binding was defined with 0.1% DMSO; Non-Specific Binding was defined with 1 µM Atropine. Assay buffer was 20 mM Hepes (pH 7.4).
Once all assay components were added, plates were covered and incubated at room temperature for 24 hrs with shaking. The assay was terminated by rapidly filtering through GF/B Unifilter plates pre-soaked with 0.5% polyethylenimine, using a Packard filtermate harvester, the filter plate was then washed with 3×1 ml 4° C. assay buffer. The filter plates were dried at 45° C. for 1 hour. The bottoms of the filter plates were sealed and 50 µl/well of Microscint ‘0’ added, the top of the plates were sealed with a Topseal. Following 90 mins, the plates were read on an NXT Topcount (1 minute read time per well).
The resulting data was expressed as a percentage of the specific binding (Specific binding=Total binding−Non-Specific Binding). % specific binding versus test compound concentration was plotted to determine an IC50 from a sigmoid curve using an in-house data analysis programme. IC50 values corrected to Ki values by applying the Cheng-Prussoff equation: […]
where IC50 is the concentration of unlabelled drug which inhibits by 50% the specific radioligand binding. [L] is the free radioligand concentrations and KD and Ki are the equilibrium dissociation constants of the radioligand and unlabelled drug respectively.

T1 sequence (P20309 whole entry): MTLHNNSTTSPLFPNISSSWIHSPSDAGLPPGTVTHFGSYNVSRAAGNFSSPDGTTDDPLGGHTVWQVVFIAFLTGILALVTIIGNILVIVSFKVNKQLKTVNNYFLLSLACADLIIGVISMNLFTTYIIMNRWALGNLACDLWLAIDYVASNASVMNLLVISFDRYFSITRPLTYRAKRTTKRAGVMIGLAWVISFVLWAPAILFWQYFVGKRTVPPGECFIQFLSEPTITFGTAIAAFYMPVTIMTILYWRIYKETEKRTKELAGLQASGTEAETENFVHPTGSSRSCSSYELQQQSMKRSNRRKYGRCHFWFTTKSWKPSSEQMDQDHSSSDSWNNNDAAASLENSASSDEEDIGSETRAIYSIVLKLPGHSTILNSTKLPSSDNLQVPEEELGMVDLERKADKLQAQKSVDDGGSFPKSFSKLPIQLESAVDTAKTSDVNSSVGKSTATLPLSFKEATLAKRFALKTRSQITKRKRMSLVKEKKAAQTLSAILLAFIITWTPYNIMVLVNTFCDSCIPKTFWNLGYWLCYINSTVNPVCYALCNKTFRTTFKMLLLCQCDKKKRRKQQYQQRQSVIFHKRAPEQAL

SMILES | Ki [1] [nM] | Ki [2] [nM]
CN(CCCCCCCCCN1CCC(OC(=O)Nc2ccccc2-c2ccccc2)CC1)C(=O)Cc1ccc(O)c(Cl)c1 [Example 15, Biphenyl-2-yl-carbamic acid 1-(9-{[2-(3-chloro-4-hydroxy-phenyl)-acetyl]-methyl-amino}-nonyl)-piperidin-4-yl ester] | 0.396 | 2.37
CN(CCCCCCCCCN1CCC(OC(=O)Nc2ccccc2-c2ccccc2)CC1)C(=O)c1ccc(F)c(O)c1 [Example 16, Biphenyl-2-yl-carbamic acid 1-{9-[(4-fluoro-3-hydroxy-benzoyl)-methyl-amino]-nonyl}-piperidin-4-yl ester] | 0.389 | 2.98
CN(CCCCCCCCCN1CCC(OC(=O)Nc2ccccc2-c2ccccc2)CC1)C(=O)c1ccc(O)c(Cl)c1 [Example 17, Biphenyl-2-yl-carbamic acid 1-{9-[(3-chloro-4-hydroxy-benzoyl)-methyl-amino]-nonyl}-piperidin-4-yl ester] | 0.25 | 2.15
CN(CCCCCCCCCN1CCC(OC(=O)Nc2ccccc2-c2ccccc2)CC1)C(=O)Cc1ccc(O)c(F)c1 [Example 18, Biphenyl-2-yl-carbamic acid 1-(9-{[2-(3-fluoro-4-hydroxy-phenyl)-acetyl]-methyl-amino}-nonyl)-piperidin-4-yl ester] | 0.353 | 2.29
O=C(Nc1ccccc1-c1ccccc1)OC1CCN(CCCCCCCCCNC(=O)c2ccc(Cl)c(O)c2)CC1 [Example 19, Biphenyl-2-yl-carbamic acid 1-[9-(4-chloro-3-hydroxy-benzoylamino)-nonyl]-piperidin-4-yl ester] | 1.32 | 1.45
O=C(Nc1ccccc1-c1ccccc1)OC1CCN(CCCCCCCCCNC(=O)c2ccc(O)cc2F)CC1 [Example 20, Biphenyl-2-yl-carbamic acid 1-[9-(2-fluoro-4-hydroxy-benzoylamino)-nonyl]-piperidin-4-yl ester] | 0.918 | 1.95
O=C(Nc1ccccc1-c1ccccc1)OC1CCN(CCCCCCCCCNC(=O)c2ccc(O)cc2Cl)CC1 [Example 21, Biphenyl-2-yl-carbamic acid 1-[9-(2-chloro-4-hydroxy-benzoylamino)-nonyl]-piperidin-4-yl ester] | 0.682 | 1.26
O=C(Nc1ccccc1-c1ccccc1)OC1CCN(CCCCCCCCCNCc2cc(Cl)c(O)c(Cl)c2)CC1 [Example 22, Biphenyl-2-yl-carbamic acid 1-[9-(3,5-dichloro-4-hydroxy-benzylamino)-nonyl]-piperidin-4-yl ester] | 0.149 | 0.865
O=C(Nc1ccccc1-c1ccccc1)OC1CCN(CCCCCCCCCNC(=O)c2ccc(O)c(F)c2F)CC1 [Example 23, Biphenyl-2-yl-carbamic acid 1-[9-(2,3-difluoro-4-hydroxy-benzoylamino)-nonyl]-piperidin-4-yl ester] | 0.276 | 2.38
O=C(Nc1ccccc1-c1ccccc1)OC1CCN(CCCCCCCCCNC(=O)c2cc(Cl)c(O)c(Cl)c2)CC1 [Example 25, Biphenyl-2-yl-carbamic acid 1-[9-(4-hydroxy-3,5-dichloro-benzoylamino)-nonyl]-piperidin-4-yl ester] | 0.854 | 4.34
O=C(Nc1ccccc1-c1ccccc1)OC1CCN(CCCCCCCCCNCc2cc(F)c(O)c(F)c2)CC1 [Example 27, Biphenyl-2-yl-carbamic acid 1-[9-(3,5-difluoro-4-hydroxy-benzylamino)-nonyl]-piperidin-4-yl ester] | 0.208 | 1.1
O=C(Nc1ccccc1-c1ccccc1)OC1CCN(CCCCCCCCCNCc2cc(Cl)c(Cl)cc2O)CC1 [Example 28, Biphenyl-2-yl-carbamic acid 1-[9-(2-hydroxy-4,5-dichloro-benzylamino)-nonyl]-piperidin-4-yl ester] | 3.59 | 3.83
O=C(Nc1ccccc1-c1ccccc1)OC1CCN(CCCCCCCCCNCc2cc(F)cc(F)c2O)CC1 [Example 29, Biphenyl-2-yl-carbamic acid 1-[9-(2-hydroxy-3,5-difluoro-benzylamino)-nonyl]-piperidin-4-yl ester] | 0.816 | 1.35
O=C(Nc1ccccc1-c1ccccc1)OC1CCN(CCCCCCCCCNCc2cccc(F)c2O)CC1 [Example 30, Biphenyl-2-yl-carbamic acid 1-[9-(2-hydroxy-3-fluoro-benzylamino)-nonyl]-piperidin-4-yl ester] | 0.705 | 1.31
O=C(Nc1ccccc1-c1ccccc1)OC1CCN(CCCCCCCCCNCc2cc(Cl)cc(Cl)c2O)CC1 [Example 31, Biphenyl-2-yl-carbamic acid 1-[9-(2-hydroxy-3,5-dichloro-benzylamino)-nonyl]-piperidin-4-yl ester] | 0.728 | 2.47
O=C(Nc1ccccc1-c1ccccc1)OC1CCN(CCCCCCCCCNCc2cc(Cl)ccc2O)CC1 [Example 32, Biphenyl-2-yl-carbamic acid 1-[9-(5-chloro-2-hydroxy-benzylamino)-nonyl]-piperidin-4-yl ester] | 1.34 | 3.04
O=C(Nc1ccccc1-c1ccccc1)OC1CCN(CCCCCCCCCNCc2cc(F)c(Cl)cc2O)CC1 [Example 33, Biphenyl-2-yl-carbamic acid 1-[9-(2-hydroxy-4-chloro-5-fluoro-benzylamino)-nonyl]-piperidin-4-yl ester] | 2.72 | 6.04
O=C(Nc1ccccc1-c1ccccc1)OC1CCN(CCCCCCCCCNCc2ccc(O)c(Cl)c2)CC1 [Example 34, Biphenyl-2-yl-carbamic acid 1-[9-(3-chloro-4-hydroxy-benzylamino)-nonyl]-piperidin-4-yl ester] | 0.96 | 0.787
O=C(Nc1ccccc1-c1ccccc1)OC1CCN(CCCCCCCCCNCc2cc(F)ccc2O)CC1 [Example 35, Biphenyl-2-yl-carbamic acid 1-[9-(2-hydroxy-5-fluoro-benzylamino)-nonyl]-piperidin-4-yl ester] | 1.64 | 1.38
O=C(Nc1ccccc1-c1ccccc1)OC1CCN(CCCCCCCCCNCc2ccc(F)c(O)c2)CC1 [Example 36, Biphenyl-2-yl-carbamic acid 1-[9-(3-hydroxy-4-fluoro-benzylamino)-nonyl]-piperidin-4-yl ester] | 2.24 | 0.235
O=C(Nc1ccccc1-c1ccccc1)OC1CCN(CCCCCCCCCNCc2ccc(Cl)c(O)c2Cl)CC1 [Example 37, Biphenyl-2-yl-carbamic acid 1-[9-(2,4-dichloro-3-hydroxy-benzylamino)-nonyl]-piperidin-4-yl ester] | 1.12 | 0.342
O=C(Nc1ccccc1-c1ccccc1)OC1CCN(CCCCCCCCCNCc2ccc(O)c(F)c2)CC1 [Example 38, Biphenyl-2-yl-carbamic acid 1-[9-(4-hydroxy-3-fluoro-benzylamino)-nonyl]-piperidin-4-yl ester] | 1.48 | 0.175
